Measured values: patent US20240002393A1, “SUBSTITUTED BENZO[f][l ,2,4JTRIAZOL0[4,3-a][l ,4J[…] GABA A GAMMA! POSITIVE ALLOSTERIC MODULATORS” (Hoffmann-La Roche Inc., priority 2020, published 2024)

Experiments:
[1] = molecular target: human GABAA α5β2γ1 receptor (Homo sapiens (Human), UniProt P31644+Q8N1C3); assay: Radioligand binding assay, [3H]RO7239181 competition, γ1-containing GABAA subtypes; details: HEK293F membranes, mean of two determinations
[2] = molecular target: human GABAA α1β2γ1 receptor (Homo sapiens (Human), UniProt P14867+Q8N1C3); assay: as above; details: HEK293F membranes, [3H]RO7239181 20-30 nM, mean of two determinations
[3] = molecular target: human GABAA α2β2γ1 receptor (Homo sapiens (Human), UniProt P47869+Q8N1C3); assay: as above; details: for Ki: HEK293F membranes, [3H]RO7239181 20-30 nM, mean of two determinations, read-out: Ki h-GABAA α2β2γ1; for γ2/γ1 Selectivity Ratio: Ki α1β3γ2 (nM)/Ki α2β2γ1 (nM); for LogSel: Log[Ki α1β3γ2 (nM)/Ki α2β2γ1 (nM)]
[4] = molecular target: human GABAA α1β3γ2 receptor (Homo sapiens (Human), UniProt P14867+P18507); assay: Radioligand binding assay, [3H]Flumazenil competition, γ2-containing GABAA subtypes; details: HEK293F membranes, [3H]Flumazenil 1 nM, mean of two determinations; read-out: Ki h-GABAA α1β3γ2
Method in brief: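 Competition with [3H]Flumazenil (81.1 Ci/mmol) for binding to HEK293F cells transiently expressing human α1β3γ2 receptors, prepared in Mannitol Buffer pH 7.2-7.4. Incubated 1 hour at 4° C to equilibrium, filtered, washed with ice-cold 50 mM Tris pH 7.5, counted by liquid scintillation. Ki values are means of two determinations.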

Structure (SMILES) | Ki [1] [nM] | Ki [2] [nM] | Ki [3] [nM] | γ2/γ1 Selectivity Ratio [3] | LogSel [3] | Ki [4] [nM]
C[C@@H]1N=C(c2c(F)cccc2F)c2c(ccc(Cl)c2Br)-n2c1n[nH]c2=O [Example 89, (4S)-7-bromo-8-chloro-6-(2,6-difluorophenyl)-4-methyl-2,4-dihydro-[1,2,4]triazolo[4,3-a][1,4]benzodiazepin-1-one] | 4.3 | 106 | 77 | 19.0 | 1.28 | 1460
OC1N=C(c2c(F)cccc2F)c2c(ccc(Br)c2Cl)-n2cnnc21 (stereo not drawn) [Example 31, 8-bromo-7-chloro-6-(2,6-difluorophenyl)-4H-[1,2,4]triazolo[4,3-a][1,4]benzodiazepin-4-ol] | 2.8 | 39.7 | 41 | 17.3 | 1.24 | 707
